Entries after “also recorded” stand apart in the source; their conditions may differ.
Tests used:
[1] = biological target: T1, Piezo1 (Mus musculus, UniProt E2JF22); test: Intracellular calcium concentration (Fluo-8) in control or Piezo1 knock-down MLO-Y4 cells; type: cell-based, murine; settings: for calcium influx / increase of intracellular calcium in Piezo1 knock-down cells: Piezo1 knock-down (sh-Piezo1) MLO-Y4 cells
T1 construct: To identify Piezo1 stimulators, we treated MLO-Y4 cells with compounds; endogenous in cells; host or cells: MLO-Y4 (murine osteocyte-like cell line); control sh-Luc cells, with sh-Piezo1 knock-down cells as the specificity control
T1 sequence (E2JF22 whole entry): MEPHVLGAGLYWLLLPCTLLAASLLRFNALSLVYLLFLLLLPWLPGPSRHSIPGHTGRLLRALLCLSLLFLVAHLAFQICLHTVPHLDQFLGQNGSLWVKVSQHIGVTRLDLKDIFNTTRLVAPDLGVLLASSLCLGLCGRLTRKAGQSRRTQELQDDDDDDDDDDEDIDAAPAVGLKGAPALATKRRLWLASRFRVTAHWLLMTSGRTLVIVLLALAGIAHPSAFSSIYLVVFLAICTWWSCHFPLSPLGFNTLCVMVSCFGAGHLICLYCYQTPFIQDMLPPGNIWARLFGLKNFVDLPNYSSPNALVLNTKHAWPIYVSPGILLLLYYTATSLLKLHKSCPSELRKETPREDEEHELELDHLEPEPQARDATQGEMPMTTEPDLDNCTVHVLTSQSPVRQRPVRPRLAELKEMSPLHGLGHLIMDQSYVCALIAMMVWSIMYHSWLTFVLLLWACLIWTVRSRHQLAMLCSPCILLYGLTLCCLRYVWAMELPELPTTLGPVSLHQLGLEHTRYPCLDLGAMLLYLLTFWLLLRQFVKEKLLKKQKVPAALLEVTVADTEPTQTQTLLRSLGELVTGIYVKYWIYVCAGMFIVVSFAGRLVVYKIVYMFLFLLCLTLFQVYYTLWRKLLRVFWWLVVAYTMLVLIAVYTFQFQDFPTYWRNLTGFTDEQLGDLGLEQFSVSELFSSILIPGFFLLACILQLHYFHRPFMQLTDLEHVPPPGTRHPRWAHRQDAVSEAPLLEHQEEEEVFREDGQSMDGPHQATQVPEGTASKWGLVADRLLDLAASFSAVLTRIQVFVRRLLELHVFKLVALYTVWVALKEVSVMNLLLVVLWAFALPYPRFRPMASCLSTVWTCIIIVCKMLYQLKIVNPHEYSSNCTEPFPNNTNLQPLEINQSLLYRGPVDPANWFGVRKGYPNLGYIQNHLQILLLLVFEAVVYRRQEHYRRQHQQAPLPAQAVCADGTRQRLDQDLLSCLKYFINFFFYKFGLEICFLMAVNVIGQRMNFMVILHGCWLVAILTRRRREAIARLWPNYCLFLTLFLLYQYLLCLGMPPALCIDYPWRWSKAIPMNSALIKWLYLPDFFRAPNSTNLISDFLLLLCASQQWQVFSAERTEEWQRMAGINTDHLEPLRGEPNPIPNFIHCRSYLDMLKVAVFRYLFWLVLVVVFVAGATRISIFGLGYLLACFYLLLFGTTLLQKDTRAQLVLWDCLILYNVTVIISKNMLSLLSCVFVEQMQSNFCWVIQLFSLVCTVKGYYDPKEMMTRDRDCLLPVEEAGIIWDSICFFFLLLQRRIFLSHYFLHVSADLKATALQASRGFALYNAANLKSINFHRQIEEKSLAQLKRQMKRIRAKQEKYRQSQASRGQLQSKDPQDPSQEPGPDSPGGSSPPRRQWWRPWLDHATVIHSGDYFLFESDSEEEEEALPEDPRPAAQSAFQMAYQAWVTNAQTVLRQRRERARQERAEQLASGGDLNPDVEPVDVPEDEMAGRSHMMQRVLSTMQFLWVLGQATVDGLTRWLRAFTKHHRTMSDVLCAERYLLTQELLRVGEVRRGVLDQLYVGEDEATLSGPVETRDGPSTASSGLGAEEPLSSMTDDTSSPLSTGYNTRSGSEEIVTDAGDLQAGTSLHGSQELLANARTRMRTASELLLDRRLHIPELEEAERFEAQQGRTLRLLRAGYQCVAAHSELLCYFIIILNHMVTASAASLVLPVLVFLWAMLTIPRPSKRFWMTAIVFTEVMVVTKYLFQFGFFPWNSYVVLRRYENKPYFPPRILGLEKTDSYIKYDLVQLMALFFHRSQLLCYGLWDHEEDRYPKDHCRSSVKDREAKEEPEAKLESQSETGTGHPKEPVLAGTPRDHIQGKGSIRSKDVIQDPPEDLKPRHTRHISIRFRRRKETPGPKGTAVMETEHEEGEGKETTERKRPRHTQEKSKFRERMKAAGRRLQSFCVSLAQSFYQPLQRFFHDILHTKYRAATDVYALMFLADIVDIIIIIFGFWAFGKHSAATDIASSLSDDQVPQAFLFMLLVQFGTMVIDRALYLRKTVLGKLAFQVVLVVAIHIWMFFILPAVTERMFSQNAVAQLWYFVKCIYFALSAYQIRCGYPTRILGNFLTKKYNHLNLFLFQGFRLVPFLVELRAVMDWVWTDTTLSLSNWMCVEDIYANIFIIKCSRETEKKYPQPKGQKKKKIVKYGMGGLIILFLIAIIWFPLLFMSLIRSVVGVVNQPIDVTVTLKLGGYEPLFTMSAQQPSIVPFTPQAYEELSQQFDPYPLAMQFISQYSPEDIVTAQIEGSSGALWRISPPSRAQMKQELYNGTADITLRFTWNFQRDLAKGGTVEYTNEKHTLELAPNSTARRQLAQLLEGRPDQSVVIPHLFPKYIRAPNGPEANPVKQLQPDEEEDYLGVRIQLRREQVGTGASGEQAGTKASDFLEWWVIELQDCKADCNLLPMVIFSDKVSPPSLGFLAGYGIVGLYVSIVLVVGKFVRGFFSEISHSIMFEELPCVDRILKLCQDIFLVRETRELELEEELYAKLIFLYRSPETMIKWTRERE
Procedure: Calcium concentration measurement. For intracellular calcium concentration measurement under fluid flow condition, 1×10^5 MLO-Y4 cells were seeded in a μ-Slide I Luer (0.4 mm) fluid chamber slide (MIDI, Germany) overnight. One hour before initiating fluid flow, the culture medium was removed and 100 μl Hank's Buffer with Hepes (HHBS) containing 4μM Fluo-8 (Abcam, Cambridge, MA) was added to the culture, as described by the manufacturer. The cells were then cultured at 37° C. for 30 minutes. After additional incubation at room temperature for 30 minutes, the chamber slide was placed under a confocal microscope in order to record the intensity of fluorescence of MLO-Y4 cells. Fluorescence was recorded for 3 minutes before starting fluid flow using HHBS and then recorded for another 10 minutes. The increase of intracellular concentration was calculated by subtracting the initial mean fluorescence. For measuring intracellular calcium concentration in cells with Yoda1 treatment, we cultured 4,000 MLO-Y4 cells per well in a 96-well-plate. We preloaded the cells with Fluo-8 as described by the manufacturer and read the intensity of the fluorescence using a Victor X3 multi-label plate reader (Perkin Elmer, Waltham, MA) immediately after the treatment. We measured the fluorescence for 5 minutes at an interval of 20 seconds. The percentage of increase in intracellular calcium concentration was calculated as (Fx-F0)/F0.
To identify Piezo1 stimulators, we treated MLO-Y4 cells with compounds Yoda1, YW-3-159, W-3-163, W-3-168-1, W-3-168-2, W-3-170, W-3-173-1, W-3-173-2, and YW-3-174. Gene expression of Wnt1, Ptgs2, and Tnfrsf11b was measured to determine the activation of Piezo1. In addition, intracellular calcium concentration was measured to determine the activity of Piezo1 channel. […] Yoda1 was used as a positive control in all experiments.

[2] = system: femoral cortical bone; test: Ex vivo femoral cortical bone organ culture, qPCR; type: cell-based; settings: cortical bone organ culture from 5-week-old mice, 10 μM, 4 hours, vs DMSO
Procedure: Femoral organ culture. Female mice at 5 weeks of age were euthanized in a CO2 chamber. Femurs were dissected and both ends were removed in a culture hood. Bone marrow was then flushed out using PBS and the periosteal surface was scraped to remove periosteal cells. Femoral shafts were then cultured in a 12-well-plate with 1 ml of α-MEM supplemented with 10% FBS and 1% penicillin/streptomycin/glutamine for 24 hours. We then treated femur shafts with 10 μM Yoda1 (Sigma, St. Louis, MO) or DMSO for 4 hours. Femur shafts were then collected for RNA isolation and qPCR analysis. Ex vivo femoral organ culture was repeated twice with three biological replicates.
Quantitative PCR. Organs and whole bones were harvested from animals, removed of soft tissues, and stored immediately in liquid nitrogen. We prepared osteocyte-enriched bone by removing the ends of femurs and tibias and then flushing the bone marrow with PBS. We then scraped the bone surface with a scalpel and froze them in liquid nitrogen for later RNA isolation, or decalcified them for genomic DNA isolation. We isolated total RNA using TRIzol (Life technologies, NY), according to the manufacturer's instructions and prepared cDNA using High Capacity first strand cDNA synthesis kit (Life Technologies). We performed quantitative RT-PCR using the following Taqman assays from Applied Biosystems: Piezo1 (Mm01241549_m1); Piezo2 (Mm01265861_m1); Ptgs2 (Mm00478374_m1); Cyr61 (Mm00487498_m1); Wnt1 (Mm01300-555_g1); Yap1 (Mm011432-63_m1); Taz (Mm01289583_m1); Tnfsf11 Mm00441906_m1; Tnfrsf11b (Mm00435452_m1); Sost (Mm00470479_m1); and ribosomal protein S2 (Mrps2) (Mm00475529_m1). We calculated relative mRNA amounts using the ΔCt method (Livak and Schmittgen, 2001). We isolated genomic DNA from decalcified cortical bone after digestion with proteinase K and phenol/chloroform extraction. We obtained two custom Taqman assays from Applied Biosystems for quantifying Piezo1 gene deletion efficiency: one specific for sequences between the loxP sites and the other specific for sequences downstream from the 3′ loxP site.

Row | SMILES | calcium influx compared with Yoda1 ([1]; MLO-Y4 cells, 10 μM) | intracellular calcium concentration compared with Yoda1 ([1]; MLO-Y4 cells, at 2 μM, 5 μM, and 10 μM) | intracellular calcium concentration, dose dependence ([1]; MLO-Y4 cells, different doses) | calcium influx / increase of intracellular calcium in Piezo1 knock-down cells ([1]; 10 μM) | intracellular calcium concentration ([1]; MLO-Y4 cells, 10 μM, vs DMSO) | Cyr61 expression [2] | Ptgs2 expression [2] | Sost expression [2] | Tnfrsf11b expression [2] | Wnt1 expression [2]
1 | Fc1ccc(Cl)c(CSc2nnc(-c3cnccn3)s2)c1Cl [YW-3-170] | much more calcium influx than Yoda1 | higher intracellular calcium concentration than Yoda1 | dose-dependently | completely blocked; also recorded: loss of their ability to stimulate calcium influx |  |  |  |  |  | 
2 | Clc1cccc(Cl)c1CSc1nnc(-c2cnccn2)s1 [Yoda1] |  |  |  | completely prevented; also recorded: completely blocked | increased | promoted expression | promoted expression | decreased | promoted expression | promoted expression
